Test results taken from ChEMBL document CHEMBL1201862, “PubChem BioAssay data set” (2004).
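Each compound was tested at five concentrations against cells in 96-well plates for 48 hours. Here, GI50 denotes the concentration required for 50% inhibition of growth.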 Calls of active or inactive are those of the source. No stated cut-off is given here; in the data, active = GI50 up to about 1.1 µM and inactive = higher.

Legend:
Test in all cases: NCI anticancer screen, dose series, 48 h
[1] = test system: RXF 393
[2] = test system: SF-539
[3] = test system: OVCAR-3
[4] = test system: HCT-15
[5] = test system: Malme-3M
[6] = test system: MDA-N
[7] = test system: SF-295
[8] = test system: UACC-257
[9] = test system: ACHN
[10] = test system: MDA-MB-231
[11] = test system: HOP-92
[12] = test system: SNB-75
[13] = test system: UACC-62
[14] = test system: KM12
[15] = test system: SN12C
[16] = test system: TK-10
[17] = test system: U-251
[18] = test system: RPMI-8226
[19] = test system: SNB-19
[20] = test system: OVCAR-5
[21] = test system: IGROV-1
[22] = test system: HCT-116
[23] = test system: NCI/ADR-RES
[24] = test system: SW-620
[25] = test system: A498
[26] = test system: COLO 205
[27] = test system: Hs-578T
[28] = test system: MDA-MB-435
[29] = test system: EKVX
[30] = test system: PC-3
[31] = test system: SK-OV-3
[32] = test system: HT-29
[33] = test system: NCI-H226
[34] = test system: SK-MEL-28
[35] = test system: A549
[36] = test system: CAKI-1
[37] = test system: M14
[38] = test system: BT-549
[39] = test system: OVCAR-4
[40] = test system: 786-0
[41] = test system: NCI-H23
[42] = test system: MCF7
[43] = test system: UO-31
[44] = test system: NCI-H522
[45] = test system: DU-145
[46] = test system: SF-268
[47] = test system: SK-MEL-2
[48] = test system: NCI-H460
[49] = test system: SK-MEL-5
[50] = test system: HOP-62
[51] = test system: T47D
[52] = test system: SR
[53] = test system: K562
[54] = test system: OVCAR-8
[55] = test system: HCC 2998
[56] = test system: HL-60
[57] = test system: MOLT-4
[58] = test system: CCRF-CEM
[59] = test system: LOX IMVI

Measured: GI50

Cc1ncc([N+](=O)[O-])n1CCN=[N+]=[N-]
inactive: [1] > 100 µM | [2] > 100 µM | [3] > 100 µM | [5] > 100 µM | [6] > 100 µM | [7] > 100 µM | [8] > 100 µM | [9] > 100 µM | [10] > 100 µM | [11] > 100 µM | [12] > 100 µM | [13] > 100 µM | [14] > 100 µM | [15] > 100 µM | [16] > 100 µM | [17] > 100 µM | [18] > 100 µM | [19] > 100 µM | [20] > 100 µM | [21] > 100 µM | [22] > 100 µM | [23] > 100 µM | [24] > 100 µM | [25] > 100 µM | [26] > 100 µM | [27] > 100 µM | [28] > 100 µM | [29] > 100 µM | [30] > 100 µM | [31] > 100 µM | [32] > 100 µM | [33] > 100 µM | [34] > 100 µM | [35] > 100 µM | [36] > 100 µM | [37] > 100 µM | [38] > 100 µM | [39] > 100 µM | [40] > 100 µM | [41] > 100 µM | [42] > 100 µM | [43] > 100 µM | [44] > 100 µM | [45] > 100 µM | [46] > 100 µM | [47] > 100 µM | [48] > 100 µM | [49] > 100 µM | [50] > 100 µM | [51] > 100 µM | [52] > 100 µM | [53] > 100 µM | [54] > 100 µM
> 100 µM: [4]

COc1ccc(/C=c2\s/c(=C3/SC(=S)N(c4ccccc4)C3=O)n(-c3ccccc3)c2=O)cc1
> 100 µM: [4]
active: [42] 0.264 µM | [46] 0.895 µM
inactive: [2] 32.8 µM | [55] > 100 µM | [3] > 100 µM | [5] > 100 µM | [6] > 100 µM | [7] 35 µM | [9] 13.6 µM | [10] 49.3 µM | [11] 21.6 µM | [12] 4.61 µM | [13] 61 µM | [14] > 100 µM | [15] > 100 µM | [16] 21.5 µM | [17] 19.6 µM | [18] > 100 µM | [19] 35.4 µM | [20] > 100 µM | [21] 19.7 µM | [22] > 100 µM | [23] > 100 µM | [56] > 100 µM | [24] > 100 µM | [25] 36.6 µM | [26] > 100 µM | [27] 18.9 µM | [28] > 100 µM | [29] > 100 µM | [30] > 100 µM | [31] 12.1 µM | [32] > 100 µM | [57] 29.8 µM | [58] 24 µM | [34] > 100 µM | [35] > 100 µM | [36] 32.9 µM | [37] > 100 µM | [38] 43.2 µM | [39] > 100 µM | [40] 43.6 µM | [41] 26.9 µM | [43] 73.1 µM | [44] > 100 µM | [59] > 100 µM | [45] > 100 µM | [48] 12.8 µM | [49] > 100 µM | [50] 21.6 µM | [51] > 100 µM | [52] 15.3 µM | [53] > 100 µM | [54] > 100 µM

C(=N\c1nc2cc3sc(/N=C/c4ccccc4)nc3cc2s1)/c1ccccc1
46 µM: [4]
inactive: [1] > 100 µM | [2] 32.5 µM | [55] 29.9 µM | [3] > 85.3 µM | [5] > 65.3 µM | [6] > 100 µM | [7] > 100 µM | [8] > 100 µM | [9] 55.8 µM | [10] > 95.3 µM | [11] > 76.9 µM | [12] > 100 µM | [13] 72.9 µM | [14] > 100 µM | [15] 69.3 µM | [16] > 50.6 µM | [17] > 94.6 µM | [18] 29.7 µM | [19] > 100 µM | [20] > 69.2 µM | [21] > 63.2 µM | [22] 44 µM | [23] > 80.4 µM | [24] 37.4 µM | [25] > 95.7 µM | [26] 4.01 µM | [27] > 45.9 µM | [28] > 100 µM | [29] 37.7 µM | [30] 98.4 µM | [31] > 100 µM | [32] 37.1 µM | [57] 9.75 µM | [58] 2.49 µM | [33] 20.7 µM | [34] > 100 µM | [35] 9.66 µM | [36] > 79.4 µM | [37] > 100 µM | [38] 54.2 µM | [39] > 89.5 µM | [40] > 100 µM | [41] 39 µM | [42] 20.8 µM | [43] 62.5 µM | [44] 17.1 µM | [59] 38.9 µM | [45] > 66.5 µM | [46] > 100 µM | [47] > 100 µM | [48] 7.52 µM | [49] 25.5 µM | [50] > 68.2 µM | [51] > 67.9 µM | [52] 10.6 µM | [53] 29.1 µM | [54] > 66.2 µM

C[C@@H]1C[C@](O)([C@@H](C)Cl)C(=O)O[C@@H]2CCN3CC=C(COC(=O)[C@]1(C)O)[C@H]23
> 100 µM: [4]
inactive: [2] > 100 µM | [55] > 100 µM | [3] > 100 µM | [6] > 100 µM | [7] > 100 µM | [8] > 100 µM | [9] > 10 µM | [10] > 100 µM | [11] > 100 µM | [12] > 100 µM | [13] > 100 µM | [14] > 100 µM | [16] > 100 µM | [17] > 100 µM | [18] > 100 µM | [19] > 10 µM | [20] > 100 µM | [21] > 100 µM | [22] > 100 µM | [23] > 100 µM | [56] > 100 µM | [24] > 100 µM | [25] > 100 µM | [26] > 100 µM | [27] > 100 µM | [28] > 100 µM | [29] > 100 µM | [30] > 100 µM | [31] > 100 µM | [32] > 100 µM | [58] > 10 µM | [33] > 100 µM | [34] > 100 µM | [35] > 100 µM | [36] > 100 µM | [37] > 100 µM | [38] > 100 µM | [39] > 100 µM | [40] > 100 µM | [41] > 10 µM | [42] > 100 µM | [43] > 10 µM | [44] > 100 µM | [59] > 100 µM | [45] > 100 µM | [46] > 100 µM | [47] > 100 µM | [48] > 10 µM | [49] > 100 µM | [50] > 100 µM | [51] > 100 µM | [52] > 100 µM | [53] > 100 µM | [54] > 100 µM

O=C(/C=C/c1ccc(O)c(O)c1)O[C@H]1CCCC[C@@H]1OC(=O)/C=C/c1ccc(O)c(O)c1
6.73 µM: [4]
inactive: [1] 10.5 µM | [2] 11.1 µM | [55] 11.2 µM | [3] 5.51 µM | [5] 15.7 µM | [6] 8.87 µM | [7] 12.9 µM | [8] 15.6 µM | [9] 7.98 µM | [10] 20.5 µM | [11] 8.93 µM | [12] 17.8 µM | [13] 8.09 µM | [14] 20.7 µM | [15] 13.6 µM | [16] 14.9 µM | [17] 14.8 µM | [18] 9.18 µM | [19] 12.3 µM | [20] 15.6 µM | [21] 4.9 µM | [22] 3.72 µM | [23] 21.8 µM | [24] 3.52 µM | [25] 22.3 µM | [26] 22.9 µM | [27] 29.9 µM | [28] 8.83 µM | [29] 20.6 µM | [30] 15.6 µM | [31] 15.8 µM | [57] 3.85 µM | [58] 4.8 µM | [34] 15.8 µM | [35] 11.7 µM | [36] 7.48 µM | [37] 15.9 µM | [38] 17.5 µM | [39] 17.9 µM | [40] 7.48 µM | [41] 13.6 µM | [42] 19.2 µM | [43] 7.03 µM | [44] 5.22 µM | [59] 3.45 µM | [45] 13.8 µM | [46] 11.6 µM | [47] 22.7 µM | [48] 5.14 µM | [49] 6.04 µM | [50] 9.77 µM | [51] 16.2 µM | [52] 5.87 µM | [53] 7.57 µM | [54] 10.9 µM
